# Experimental data: patent publication US12540131B2 (Merck Sharp & Dohme LLC, priority 2019, dated 2026)
# Target: GST tagged truncated human mutant G2019S LRRK2 (Homo sapiens (Human), UniProt Q5S007, G2019S)
# Assay: LRRK2 Km ATP LanthaScreen Assay
# Type: biochemical
# Details: G2019S LRRK2, 134 μM ATP (Km ATP), mean values
# Summary of the method: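 Enzyme (GST-tagged, truncated) was preincubated with compound for 15 min at RT in 50 mM Tris pH 8.5, 10 mM MgCl2, 0.01% Brij-35, 1 mM EGTA, 2 mM DTT and 0.05 mM orthovanadate. Fluorescein-LRRKtide and 134 μM ATP (Km) were then added for 90 min. EDTA and Tb-anti-pERM antibody stopped the reaction; the TR-FRET 520/495 ratio gave 4-parameter IC50s, reported as mean pIC50.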
# Sequence of GST tagged truncated human mutant G2019S LRRK2 (Q5S007 970-2527 G2019S): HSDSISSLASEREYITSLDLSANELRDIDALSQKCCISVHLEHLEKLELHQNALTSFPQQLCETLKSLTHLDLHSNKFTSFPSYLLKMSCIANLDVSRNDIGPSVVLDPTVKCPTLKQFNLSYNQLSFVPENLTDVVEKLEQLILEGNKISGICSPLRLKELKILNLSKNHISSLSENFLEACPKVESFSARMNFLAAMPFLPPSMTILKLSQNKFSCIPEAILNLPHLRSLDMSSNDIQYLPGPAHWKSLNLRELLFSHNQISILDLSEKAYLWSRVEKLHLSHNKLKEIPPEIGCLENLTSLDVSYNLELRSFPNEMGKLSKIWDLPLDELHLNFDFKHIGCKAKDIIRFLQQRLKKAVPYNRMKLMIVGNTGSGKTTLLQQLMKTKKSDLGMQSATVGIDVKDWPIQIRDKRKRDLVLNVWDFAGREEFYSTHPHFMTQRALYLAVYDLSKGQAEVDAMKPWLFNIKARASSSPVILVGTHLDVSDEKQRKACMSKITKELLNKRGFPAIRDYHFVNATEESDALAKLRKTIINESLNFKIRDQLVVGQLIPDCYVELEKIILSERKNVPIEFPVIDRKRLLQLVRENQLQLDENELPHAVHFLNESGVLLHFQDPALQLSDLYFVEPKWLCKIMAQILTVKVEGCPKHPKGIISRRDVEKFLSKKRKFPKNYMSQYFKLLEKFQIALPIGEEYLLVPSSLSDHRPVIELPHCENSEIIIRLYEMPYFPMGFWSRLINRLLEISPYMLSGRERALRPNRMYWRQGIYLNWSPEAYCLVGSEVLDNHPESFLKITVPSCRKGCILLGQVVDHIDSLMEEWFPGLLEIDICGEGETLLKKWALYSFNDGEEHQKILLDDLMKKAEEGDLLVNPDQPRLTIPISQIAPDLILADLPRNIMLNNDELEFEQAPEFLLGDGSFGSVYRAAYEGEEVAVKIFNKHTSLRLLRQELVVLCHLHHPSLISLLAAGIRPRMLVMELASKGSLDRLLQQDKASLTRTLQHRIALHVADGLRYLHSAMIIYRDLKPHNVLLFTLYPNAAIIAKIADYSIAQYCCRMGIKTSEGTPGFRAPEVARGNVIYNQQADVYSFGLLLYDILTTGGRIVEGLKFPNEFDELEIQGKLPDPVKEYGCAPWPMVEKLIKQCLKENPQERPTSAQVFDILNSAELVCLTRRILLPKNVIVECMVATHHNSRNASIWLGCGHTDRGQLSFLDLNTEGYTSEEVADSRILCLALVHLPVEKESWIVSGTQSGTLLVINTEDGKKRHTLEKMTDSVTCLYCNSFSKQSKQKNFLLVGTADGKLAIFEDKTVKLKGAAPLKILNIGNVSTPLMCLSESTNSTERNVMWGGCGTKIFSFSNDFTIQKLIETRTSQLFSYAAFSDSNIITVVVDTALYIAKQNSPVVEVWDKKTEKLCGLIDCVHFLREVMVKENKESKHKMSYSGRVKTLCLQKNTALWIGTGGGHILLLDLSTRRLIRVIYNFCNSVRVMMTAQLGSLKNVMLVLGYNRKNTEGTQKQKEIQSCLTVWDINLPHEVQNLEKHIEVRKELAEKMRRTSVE
row,SMILES,LRRK2 pIC50
1,"Cc1cc(Nc2ncc3cc(Cl)c(C4CCN([C@H]5COC[C@H]5O)CC4)cc3n2)n(C)n1 (single isomer, unassigned) [Ex-2.68, (3S,4S) or (3R,4R) 4-(4-{6-chloro-2-[(1,3-dimethyl-1H-pyrazol-5-yl)amino]quinazolin-7-yl}piperidin-1-yl)oxolan-3-ol]",>9.20
2,"[2H]C([2H])([2H])n1nc(C)cc1Nc1ncc2cc(Cl)c(C3CCN([C@H]4COC[C@H]4O)CC3)cc2n1 (single isomer, unassigned) [Ex-2.69, (3S,4S) or (3R,4R) 4-(4-(6-chloro-2-((3-methyl-1-(methyl-d3)-1H-pyrazol-5-yl)amino)quinazolin-7-yl)piperidin-1-yl)tetrahydrofuran-3-ol]",8.21
3,"[2H]C([2H])([2H])n1ncc(Nc2ncc3cc(Cl)c(C4CCN([C@H]5COC[C@H]5O)CC4)cc3n2)c1Cl (single isomer, unassigned) [Ex-2.70, (3S,4S) or (3R,4R) 4-(4-(6-chloro-2-((5-chloro-1-(methyl-d3)-1H-pyrazol-4-yl)amino)quinazolin-7-yl)piperidin-1-yl)tetrahydrofuran-3-ol]",>9.20
4,"Cc1c(Nc2ncc3cc(Cl)c(C4CCN([C@@H]5COC[C@@H]5O)CC4)cc3n2)cnn1C(C)(C)C#N (single isomer, unassigned) [Ex-2.74, (3S,4S) or (3R,4R) 2-[4-({6-chloro-7-[1-(4-hydroxyoxolan-3-yl)piperidin-4-yl]quinazolin-2-yl}amino)-5-methyl-1H-pyrazol-1-yl]-2-methylpropanenitrile]",>9.20
5,"Cc1cc(Nc2ncc3cc(Cl)c(C4CCN([C@@H]5COC[C@@H]5O)CC4)cc3n2)n(C2CC2)n1 (single isomer, unassigned) [Ex-2.75, (3S,4S) or (3R,4R)4-(4-{6-chloro-2-[(1-cyclopropyl-3-methyl-1H-pyrazol-5-yl)amino]quinazolin-7-yl}piperidin-1-yl)oxolan-3-ol]",8.63
6,"Cn1ncc(Nc2ncc3cc(Cl)c(C4CCN([C@]5(C)COC[C@@H]5O)CC4)cc3n2)c1Cl (single isomer, unassigned) [Ex-2.76, (3S,4S) or (3R,4R) 4-(4-(6-chloro-2-((5-chloro-1-methyl-1H-pyrazol-4-yl)amino)quinazolin-7-yl)piperidin-1-yl)-4-methyltetrahydrofuran-3-ol]",7.76
7,"Cc1c(Nc2ncc3cc(Cl)c(C4CCN([C@]5(C)COC[C@@H]5O)CC4)cc3n2)cnn1C (single isomer, unassigned) [Ex-2.77, (3S,4S) or (3R,4R) 4-(4-{6-chloro-2-[(1,5-dimethyl-1H-pyrazol-4-yl)amino]quinazolin-7-yl}piperidin-1-yl)-4-methyloxolan-3-ol]",8.01
8,"Cc1cc2cnc(Nc3cnn(C)c3Cl)nc2cc1C1CCN([C@@H]2COC[C@@H]2O)CC1 (single isomer, unassigned) [Ex-2.78, (3S,4S) or (3R,4R) 4-(4-{2-[(5-chloro-1-methyl-1H-pyrazol-4-yl)amino]-6-methylquinazolin-7-yl}piperidin-1-yl)oxolan-3-ol]",>9.20
9,"Cc1cc2cnc(Nc3cnn(C)c3C)nc2cc1C1CCN([C@@H]2COC[C@@H]2O)CC1 (single isomer, unassigned) [Ex-2.79, (3S,4S) or (3R,4R) 4-(4-{2-[(1,5-dimethyl-1H-pyrazol-4-yl)amino]-6-methylquinazolin-7-yl}piperidin-1-yl)oxolan-3-ol]",>9.20
10,"Cc1cc2cnc(Nc3cnn(C)c3Cl)nc2cc1C1CCN([C@]2(C)COC[C@@H]2O)CC1 (single isomer, unassigned) [Ex-2.80, (3S,4S) or (3R,4R) 4-(4-{2-[(5-chloro-1-methyl-1H-pyrazol-4-yl)amino]-6-methylquinazolin-7-yl}piperidin-1-yl)-4-methyloxolan-3-ol]",7.14
11,"Cc1cc2cnc(Nc3cnn(C)c3C)nc2cc1C1CCN([C@]2(C)COC[C@@H]2O)CC1 (single isomer, unassigned) [Ex-2.81, (3S,4S) or (3R,4R) 4-(4-{2-[(1,5-dimethyl-1H-pyrazol-4-yl)amino]-6-methylquinazolin-7-yl}piperidin-1-yl)-4-methyloxolan-3-ol]",7.35
12,"Cn1ncc(Nc2ncc3cc(Cl)c(C4CCN([C@]5(C)COC[C@@H]5O)CC4)cc3n2)c1C(F)F (single isomer, unassigned) [Ex-2.82, (3S,4S) or (3R,4R) 4-[4-(6-chloro-2-{[5-(difluoromethyl)-1-methyl-1H-pyrazol-4-yl]amino}quinazolin-7-yl)piperidin-1-yl]-4-methyloxolan-3-ol]",>9.20
13,"Cn1nc(C(C)(C)C)cc1Nc1ncc2cc(Cl)c(C3CCN([C@]4(C)COC[C@@H]4O)CC3)cc2n1 (single isomer, unassigned) [Ex-2.83, (3S,4S) or (3R,4R) 4-(4-{2-[(3-tert-butyl-1-methyl-1H-pyrazol-5-yl)amino]-6-chloroquinazolin-7-yl}piperidin-1-yl)-4-methyloxolan-3-ol]",8.71
14,"C[C@@]1(N2CCC(c3cc4nc(Nc5ccnn5C5CC5(F)F)ncc4cc3Cl)CC2)COC[C@@H]1O (single isomer, unassigned) [Ex-2.84, (S)(3S,4S) or (S)(3R,4R) or (R)(3S,4S) or (R)(3R,4R) 4-[4-(6-chloro-2-{[1-(2,2-difluorocyclopropyl)-1H-pyrazol-5-yl]amino}quinazolin-7-yl)piperidin-1-yl]-4-methyloxolan-3-ol]",8.80
15,"C[C@@]1(N2CCC(c3cc4nc(Nc5ccnn5C5CC5)ncc4cc3Cl)CC2)COC[C@@H]1O (single isomer, unassigned) [Ex-2.85, (3S,4S) or (3R,4R) 4-(4-{6-chloro-2-[(1-cyclopropyl-1H-pyrazol-5-yl)amino]quinazolin-7-yl}piperidin-1-yl)-4-methyloxolan-3-ol]",9.03
16,"Cc1nn(C)c(Nc2ncc3cc(Cl)c(C4CCN([C@]5(C)COC[C@@H]5O)CC4)cc3n2)c1C#N (single isomer, unassigned) [Ex-2.86, (3S,4S) or (3R,4R) 5-({6-chloro-7-[1-(4-hydroxy-3-methyloxolan-3-yl)piperidin-4-yl]quinazolin-2-yl}amino)-l,3-dimethyl-1H-pyrazole-4-carbonitrile]",8.05
17,"C[C@@]1(N2CCC(c3cc4nc(Nc5ccnn5C5CC5(F)F)ncc4cc3Cl)CC2)COC[C@@H]1O (single isomer, unassigned) [Ex-2.87, (S)(3S,4S) or (S)(3R,4R) or (R)(3S,4S) or (R)(3R,4R) 4-[4-(6-chloro-2-{[1-(2,2-difluorocyclopropyl)-1H-pyrazol-5-yl]amino}quinazolin-7-yl)piperidin-1-yl]-4-methyloxolan-3-ol]",8.04
18,"CC1(n2ncc(Nc3ncc4cc(Cl)c(C5CCN([C@]6(C)COC[C@@H]6O)CC5)cc4n3)c2Cl)CC1 (single isomer, unassigned) [Ex-2.88, (3S,4S) or (3R,4R) 4-[4-(6-chloro-2-{[5-chloro-1-(1-methylcyclopropyl)-1H-pyrazol-4-yl]amino}quinazolin-7-yl)piperidin-1-yl]-4-methyloxolan-3-ol]",>9.20
19,"Cn1nc(C(F)(F)F)cc1Nc1ncc2cc(Cl)c(C3CCN([C@]4(C)COC[C@@H]4O)CC3)cc2n1 (single isomer, unassigned) [Ex-2.89, (3S,4S) or (3R,4R) 4-[4-(6-chloro-2-{[1-methyl-3-(trifluoromethyl)-1H-pyrazol-5-yl]amino}quinazolin-7-yl)piperidin-1-yl]-4-methyloxolan-3-ol]",7.39
20,"Cn1ncc(Nc2ncc3cc(Cl)c(C4CCN([C@]5(C)COC[C@@H]5O)CC4)cc3n2)c1C(F)(F)F (single isomer, unassigned) [Ex-2.90, (3S,4S) or (3R,4R) 4-(4-(6-chloro-2-((1-methyl-5-(trifluoromethyl)-1H-pyrazol-4-yl)amino)quinazolin-7-yl)piperidin-1-yl)-4-methyltetrahydrofuran-3-olyl)piperidin-1-yl]-4-methyloxolan-3-ol]",>9.20
21,"C[C@@]1(N2CCC(c3cc4nc(Nc5cnn(C6CC6)c5C(F)F)ncc4cc3Cl)CC2)COC[C@@H]1O (single isomer, unassigned) [Ex-2.91, (3S,4S) or (3R,4R) 4-[4-(6-chloro-2-{[1-cyclopropyl-5-(difluoromethyl)-1H-pyrazol-4-yl]amino}quinazolin-7-yl)piperidin-1-yl]-4-methyloxolan-3-ol]",>9.20
22,"CC1(N2CCC(n3ncc(Nc4ncc5cc(Cl)c(C6CC6(F)F)cc5n4)c3Cl)C(F)C2)COC1 (single isomer, unassigned) [Ex-3.1, (3R,4R)(7S) or (3R,4R)(7R) or (3S,4S)(7S) or (3S,4S)(7R) 6-chloro-N-(5-chloro-1-(3-fluoro-1-(3-methyloxetan-3-yl)piperidin-4-yl)-1H-pyrazol-4-yl)-7-(2,2-difluorocyclopropyl)quinazolin-2-amine]",7.54
23,"CC1(N2CCC(n3ncc(Nc4ncc5cc(Cl)c(C6CC6(F)F)cc5n4)c3Cl)C(F)C2)COC1 (single isomer, unassigned) [Ex-3.2, (3R,4R)(7S) or (3R,4R)(7R) or (3S,4S)(7S) or (3S,4S)(7R) 6-chloro-N-(5-chloro-1-(3-fluoro-1-(3-methyloxetan-3-yl)piperidin-4-yl)-1H-pyrazol-4-yl)-7-(2,2-difluorocyclopropyl)quinazolin-2-amine]",7.07

# Same assay, conditions: G2019S LRRK2, 134 μM ATP (Km ATP), mean values; read-out: LRRK2 pIC50 (converted)
row,SMILES,IC50 [nM]
1,"Cc1c(Nc2ncc3cc(Cl)c(C4CCN(C5COC5)CC4)cc3n2)cnn1C1CC1(F)F (single isomer, unassigned) [Ex-2.73, (S) or (R) 6-chloro-N-[1-(2,2-difluorocyclopropyl)-5-methyl-1H-pyrazol-4-yl]-7-[1-(oxetan-3-yl)piperidin-4-yl]quinazolin-2-amine]",0.955
